According to patent US12336980B2, “Dosing regimen for a selective S1P1 receptor agonist” (Vanda Pharmaceuticals Inc., priority 2014, dated 2025):

Assays:
Format in all cases: in vivo, human
heart rate in humans = assay: Heart rate reduction in humans after administration (background finding); settings: transient heart rate reduction
healthy subjects [1] = assay: Pulmonary function tests and clinical laboratory (hematology); settings: hemoglobin, hematocrit, red blood cell count, basophils, eosinophils, neutrophils, monocytes, platelet count
Protocol: (§1) Safety and tolerability were evaluated by monitoring adverse events (AEs), vital signs measurements (supine blood pressure), pulmonary function tests (PFTs; i.e., FEV1 and FVC), clinical laboratory, physical, and neurological examinations. Recording of blood pressure was performed at the same time-points as 12-lead ECG.

[2] = tested on: circulating total lymphocyte count; assay: Total lymphocyte count by hemocytometry; settings: for total lymphocyte count, mean percentage change from baseline (±SD): Day 3; for total lymphocyte count, decrease from baseline: Day 6
Excerpt: The enrolled subjects came to the study center for each treatment period on Day −2 and participated in a run-in (all study procedures performed without study drug administration) on Day −1. On Day 1, subjects were randomized to one of the two possible sequences of the two up-titration regimens A and B (ratio 1:1). On Day 1, all subjects received placebo; the first study drug administration (or its matching placebo) occurred on Day 2. Regimen A consisted of the novel up-titration regimen: ponesimod was administered once daily (o.d.) orally at a dose of 2 mg on Day 2 and Day 3, 3 mg on Day 4 and Day 5, 4 mg on Day 6 and Day 7, 5 mg on Day 8, 6 mg on Day 9, 7 mg on Day 10, 8 mg on Day 11, 9 mg on Day 12, 10 mg on Day 13 and Day 14, and 20 mg on Day 15. The reference regimen (regimen B) was based on previous studies (Olsson T. et al., Oral ponesimod in relapsing-remitting multiple sclerosis: a randomised phase II trial. J Neurol Neurosurg Psychiatry. 2014; 85 (11): 1198-1208; and Vaclavkova A. et al., Oral ponesimod in patients with chronic plaque psoriasis: a randomised, double-blind, placebo-controlled phase 2 trial. Lancet. 2014; 384 (9959): 2036-2045) and consisted of an o.d. oral administration of ponesimod at a dose of 10 mg for 7 days (i.e., from Day 2 to Day 8) and 20 mg on Day 9. From Day 10 to Day 15 subjects received o.d. the matching placebo. In the placebo group (1:1 sex ratio), subjects received placebo from Day 1 to Day 15. All treatments were administered at the same time in the morning (fasted condition) with approximately 240 mL of water. Blood samples of about 3 mL were collected in ethylene di-amine tetra acetic acid tubes at pre-dose and 3 h after study drug administration from Day 1 to Day 15 in each treatment period. After centrifugation, plasma was transferred into a polypropylene tube and stored at −21° C. (±5° C.) pending analysis. Plasma concentrations of ponesimod were determined using a validated liquid chromatography coupled to tandem mass spectrometry assay with a lower limit of quantification of 1 ng/mL (Brossard P. et al., Pharmacokinetics and pharmacodynamics of ponesimod, a selective S1 P1 receptor modulator, in the first-in-human study. British journal of clinical pharmacology. 2013; 76 (6): 888-896). Trough samples were taken on Day −1, Day 3, Day 6, Day 9, Day 12, and Day 15 of each treatment period and at EOFP and EOS to assess total lymphocyte count by hemocytometry. Cardiodynamic and pharmacodynamic data are expressed as mean±SD. Repeated measure one-way ANOVAs followed by Tukey's multiple-comparisons tests were used to perform inter-group (i.e., placebo vs. regimen A vs. regimen B) comparisons. Student's t-tests were employed to perform intra-group (baseline vs. treatment) comparisons. Differences were considered to be statistically significant at p <0.05. SAS® version 9.2 (SAS Institute, Cary, NC, USA) was used for the statistical analysis and descriptive statistics of clinical data.

[3] = tested on: peripheral blood lymphocytes; assay: Repeated daily oral dosing, number of peripheral blood lymphocytes (background finding); settings: repeated daily oral dosing of 5 mg or more to humans
healthy subjects [4] = assay: Safety and tolerability, adverse events
Protocol: In a single-center, double-blind, placebo-controlled, randomized, two-way cross-over study, 32 healthy subjects (15 males) received placebo on Day 1 followed by multiple-dose administration of either ponesimod or placebo (ratio 3:1). Ponesimod was administered alternately using regimen A (incremental dose increase from 2 to 20 mg) or B (10 mg for 7 days followed by a single-dose administration of 20 mg). Cardiodynamic (Holter and 12-lead ECG), pharmacokinetic, pharmacodynamic (total lymphocyte count), and safety variables were assessed.
The enrolled subjects came to the study center for each treatment period on Day −2 and participated in a run-in (all study procedures performed without study drug administration) on Day −1. On Day 1, subjects were randomized to one of the two possible sequences of the two up-titration regimens A and B (ratio 1:1). On Day 1, all subjects received placebo; the first study drug administration (or its matching placebo) occurred on Day 2. Regimen A consisted of the novel up-titration regimen: ponesimod was administered once daily (o.d.) orally at a dose of 2 mg on Day 2 and Day 3, 3 mg on Day 4 and Day 5, 4 mg on Day 6 and Day 7, 5 mg on Day 8, 6 mg on Day 9, 7 mg on Day 10, 8 mg on Day 11, 9 mg on Day 12, 10 mg on Day 13 and Day 14, and 20 mg on Day 15. The reference regimen (regimen B) was based on previous studies (Olsson T. et al., Oral ponesimod in relapsing-remitting multiple sclerosis: a randomised phase II trial. J Neurol Neurosurg Psychiatry. 2014; 85 (11): 1198-1208; and Vaclavkova A. et al., Oral ponesimod in patients with chronic plaque psoriasis: a randomised, double-blind, placebo-controlled phase 2 trial. Lancet. 2014; 384 (9959): 2036-2045) and consisted of an o.d. oral administration of ponesimod at a dose of 10 mg for 7 days (i.e., from Day 2 to Day 8) and 20 mg on Day 9. From Day 10 to Day 15 subjects received o.d. the matching placebo. In the placebo group (1:1 sex ratio), subjects received placebo from Day 1 to Day 15. All treatments were administered at the same time in the morning (fasted condition) with approximately 240 mL of water.
as §1

Q: Which “time of maximal heart rate reducing effects after administration” value (heart rate in humans) does the source give for `CCC/N=C1\S/C(=C\c2ccc(OC[C@H](O)CO)c(Cl)c2)C(=O)N1c1ccccc1C` [ponesimod, (R)-5-[3-chloro-4-(2,3-dihydroxy-propoxy)-benz[Z]ylidene]-2-([Z]-propylimino)-3-o-tolyl-thiazolidin-4-one] here?
A: 1 to 3 h

Q: And the “effect on PFT variables and hematology variables” value (healthy subjects [1])?
A: No treatment effect

Q: And the “recovery of individual total lymphocyte count” value ([2]; at EOFP and EOS, normal range i.e. 80% of baseline)?
A: returned to within the normal range

Q: And the “total lymphocyte count, mean percentage change from baseline (±SD)” value ([2]; regimen A)?
A: −11.6±10.2%

Q: What about the “total lymphocyte count, decrease from baseline” value ([2]; regimen A) of the same compound?
A: −15.0±14.4%

Q: What about the “total lymphocyte count, decrease following the last dose of 10 mg” value ([2]; regimen A, Day 15 before administration of the dose of 20 mg) of the same compound?
A: −50.8±12.1%

Q: And the “total lymphocyte count, mean percentage change from baseline (±SD)” value ([2]; regimen B)?
A: −28.9±12.2%

Q: What about the “total lymphocyte count, decrease from baseline” value ([2]; regimen B) of the same compound?
A: −46.5±12.3%

Q: What about the “total lymphocyte count, decrease following the last dose of 10 mg” value ([2]; regimen B, Day 9 before administration of the dose of 20 mg) of the same compound?
A: −52.3±11.0%

Q: And the “reduction in the number of peripheral blood lymphocytes” value [3]?
A: consistent, sustained, and dose-dependent reduction

Q: What about the “time of serious AE of atrial fibrillation after administration” value (healthy subjects [4]; 20 mg ponesimod (regimen B)) of the same compound?
A: 6 h

Q: And the “time to resolution of serious AE of atrial fibrillation without sequelae” value (healthy subjects [4]; 20 mg ponesimod (regimen B))?
A: ≤ 24 h

Q: What about the “serious AE” value (healthy subjects [4]; after 20 mg ponesimod (regimen B)) of the same compound?
A: One serious AE of atrial fibrillation

Q: And the “intensity of AEs” value (healthy subjects [4]; all treatment groups)?
A: mild to moderate

Q: And the “most commonly reported AEs” value (healthy subjects [4]; on ponesimod, also among the most common in the placebo group)?
A: headache, dizziness, and procedural site reaction

Q: What about the “AEs of special interest related to cardiac function (sinus bradycardia and palpitations)” value (healthy subjects [4]; regimen B vs regimen A) of the same compound?
A: reported more frequently during regimen B compared to regimen A
